Values quoted from earlier work, collected in publication PMC4291223, “Inhibitors of CLK Protein Kinases Suppress Cell Growth and Induce Apoptosis by Modulating Pre-mRNA Splicing” (PLoS ONE, 2015).

Tested on: CLK1 and CLK4
Set-up: method as in PMID 15010457
Details: cited from earlier work

SMILES: CCN1/C(=C/C(C)=O)Sc2ccc(OC)cc21 [TG003]
- CLK selectivity: selectively inhibits CLK1 and CLK4
